Source: US20210395256A1, “TYROSINE KINASE INHIBITORS, COMPOSITIONS AND METHODS THERE OF” (Betta Pharmaceuticals Co., Ltd., priority 2018, published 2021)

How the values were obtained:
[1] = target: T1, CYP3A4 (Homo sapiens, UniProt P08684); test: Cytochrome P450 inhibition, CYP3A4; format: in vitro ADME; settings: 10 μM compound, human liver microsomes; for inhibition at 5 min, 10 µM: probe Midazolam (5 μM), substrate Midazolam, read-out: Inhibition percentage CYP3A4 (Midazolam); for inhibition at 10 min, 10 µM: probe Testosterone (50 μM), substrate Testosterone, read-out: Inhibition percentage CYP3A4 (Testosterone)
T1 construct: from tissue; host or cells: human liver microsomes
Experimental: Example 205 Cytochrome P450 Measurements
The cytochrome P450 was measured as the following procedure:
1) A master solution containing phosphate buffer, ultra-pure H2O, MgCl2 solution and human liver microsomes was made according to Table 17, and then 1 μL of 2 mM of compound solution or 1 μL of DMSO (as without inhibitor control) was added to the above master solution. The final concentration of test compounds or control compounds was 10 μM.
6) For CYP3A4 inhibition, 1 μL of specific drug substrate (Midazolam: 1 mM) was added at the final concentration of 5 μM to the above solution.
7) For CYP3A4 inhibition, 1 μL of specific drug substrate (Testosterone: 10 mM) was added at the final concentration of 50 μM to the above solution.
8) The mixture was pre-warmed at 37° C. for 5 min. The reaction was started by the addition of 20 μL of 10 mM NADPH solution at the final concentration of 1 mM and carried out at 37° C.
9) The reaction was stopped by addition of 300 μL of cold quench solution (methanol containing internal standards (1S, 500 nM Labetalol, 100 nM Alprazolam and 2 μM Ketoprofen) at the designated time points (Phenacetin: 20 min; Paclitaxel: 10 min; Tolbutamide: 20 min; (s)-Mephenytoin: 20 min; Midazolam: 5 min; Testosterone: 10 min). Samples were vortexed for 5 minutes and centrifuged at 3220 g for 40 minutes at 4° C. And then 100 μL of the supernatant was transferred to a new 96-well plate with 100 μL or 200 μL water (depends on the LC-MS signal response and peak shape) for LC-MS/MS analysis.
All experiments were performed in duplicates.
Inhibition percentages for compounds against CYP1A2, CYP2C8, CYP2C9, CYP2C19, and […]

[2] = target: T2, Ba/F3-ETV6-NTRK3 (Homo sapiens, UniProt Q16288); test: Ba/F3-ETV6-NTRK3 cells proliferation assay; format: cell-based; settings: 72 h, CellTiter Glo
T2 construct: Ba/F3 cells with TPM3-NTRK1 or ETV6-NTRK3 fusion mutation gene stably overexpressed named Ba/F3-TPM3-NTRK1 and Ba/F3-ETV6-NTRK3; fused on or other part: P41212 (Transcription factor ETV6)
Experimental: Example 202 Ba/F3-TPM3-NTRK1 and Ba/F3-ETV6-NTRK3 cells proliferation assay
Cell line: Ba/F3 cells with TPM3-NTRK1 or ETV6-NTRK3 fusion mutation gene stably overexpressed named Ba/F3-TPM3-NTRK1 and Ba/F3-ETV6-NTRK3.
RPMI 1640 and 10% FBS and 1% PS and 2 ug/mL puromycin.
b) Collect cell to a 15 mL centrifuged tube, centrifuge at 1000 rpm for 5 min. Discard the supernatant, count, and make the cell density at 1.49×10^4 cells/mL, then place it in a 37° C., 5% CO2 incubator.
a) The test compound (20 mM stock solution) was diluted to 60 μM with 100% DMSO as starting concentration then 3-fold serial diluted with “9+0” concentrations. in a 96-well dilution plate (Thermo, Cat. No. 249944);
b) The above compound solution was diluted 1:20 times with culture medium to prepare a 10 fold working solution;
a) Take cells in log phase growth, centrifuge at 1000 rpm for 5 min, then resuspend the cells with culture medium, then count cells;
b) Cells were seeded to 96-well cell culture plate with density at 2000 cells/well;
a) Compounds prepared at step 2 were added to cell plate with 15 μL per well, the final concentrations were 300, 100, 33.33, 11.11, 3.70, 1.23, 0.41, 0.14, 0.05 and 0 nM, and the final concentration of DMSO was 0.5%. The blank control well was a culture medium (0.5% DMSO);
c) The cells were incubated for an additional 72 h in the incubator.
a) Remove the 96-well cell culture plate and add 50 μl of CTG reagent (CellTiter Glo kit, promega, Cat #G7573).
b) Plate was shaked for 2 min and then let it cool for 30 min at room temperature.
c) The Luminescence signal value was read using a PerkinElmer reader.
Experimental Data Analysis
Data were analyzed using GraphPad Prism 6.0 software to obtain a fitted curve of compound activity.
Fit the Compound IC50 from non-linear regression equation:
Y=Bottom+(Top-Bottom)/(1+10^((Log IC50-X)×HillSlope));
X: The log of the concentration of the compound; Y: Luminescence value.

T1 sequence (P08684 whole entry): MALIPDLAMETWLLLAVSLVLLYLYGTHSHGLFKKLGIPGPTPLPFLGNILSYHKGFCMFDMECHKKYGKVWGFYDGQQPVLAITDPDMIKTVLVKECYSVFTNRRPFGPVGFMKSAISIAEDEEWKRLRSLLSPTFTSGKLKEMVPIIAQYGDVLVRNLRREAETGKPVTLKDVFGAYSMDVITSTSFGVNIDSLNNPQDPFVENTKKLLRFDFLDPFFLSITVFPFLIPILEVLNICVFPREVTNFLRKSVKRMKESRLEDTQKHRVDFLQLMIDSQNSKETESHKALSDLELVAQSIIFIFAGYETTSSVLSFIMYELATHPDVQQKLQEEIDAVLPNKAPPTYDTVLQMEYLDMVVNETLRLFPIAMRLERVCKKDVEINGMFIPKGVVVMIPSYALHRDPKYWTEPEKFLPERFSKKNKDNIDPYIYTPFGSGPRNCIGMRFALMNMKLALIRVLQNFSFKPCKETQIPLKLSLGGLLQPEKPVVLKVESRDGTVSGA
T2 sequence (Q16288 whole entry, the tested form may be a part): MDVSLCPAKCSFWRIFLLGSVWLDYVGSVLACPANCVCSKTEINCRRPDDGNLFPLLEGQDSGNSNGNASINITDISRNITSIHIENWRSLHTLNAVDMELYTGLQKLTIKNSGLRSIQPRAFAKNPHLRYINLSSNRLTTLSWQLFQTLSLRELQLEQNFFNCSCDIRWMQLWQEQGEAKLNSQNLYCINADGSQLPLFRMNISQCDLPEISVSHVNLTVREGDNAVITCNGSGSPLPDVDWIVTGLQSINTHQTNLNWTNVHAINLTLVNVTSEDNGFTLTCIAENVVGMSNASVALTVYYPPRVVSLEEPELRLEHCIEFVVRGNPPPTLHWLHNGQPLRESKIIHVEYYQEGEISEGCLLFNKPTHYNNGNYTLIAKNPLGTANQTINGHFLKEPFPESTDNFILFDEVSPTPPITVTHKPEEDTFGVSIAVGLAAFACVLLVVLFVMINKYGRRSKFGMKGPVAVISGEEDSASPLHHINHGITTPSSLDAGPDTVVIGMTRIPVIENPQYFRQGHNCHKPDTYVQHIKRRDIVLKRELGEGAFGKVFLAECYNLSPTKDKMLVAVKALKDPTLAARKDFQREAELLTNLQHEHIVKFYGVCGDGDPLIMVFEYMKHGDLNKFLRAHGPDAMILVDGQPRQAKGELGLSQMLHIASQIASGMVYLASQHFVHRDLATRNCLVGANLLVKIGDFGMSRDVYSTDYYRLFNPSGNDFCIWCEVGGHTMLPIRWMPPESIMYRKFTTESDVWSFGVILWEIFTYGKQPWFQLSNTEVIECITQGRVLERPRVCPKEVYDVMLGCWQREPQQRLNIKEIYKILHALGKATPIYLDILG

SMILES	inhibition at 5 min, 10 µM [1]	inhibition at 10 min, 10 µM [1]	IC50 [2]
Cc1nnc(-c2cnn3ccc(N4CCCC4c4cc(F)ccc4F)nc23)[nH]1 (centres unmarked) [Comparative compound A, 5-[2-(2,5-Difluorophenyl)pyrrolidin-1-yl]-3-(5-methyl-1H-1,2,4-triazol-3-yl)pyrazolo[1,5-a]pyrimidine, reference compound]	70.1%	38.3%	–
C[C@H](O)c1nnc(-c2cnn3ccc(N4CCC[C@@H]4c4cc(F)ccc4F)nc23)[nH]1 [Compound 4, (S)-1-(5-(5-((R)-2-(2,5-difluorophenyl)pyrrolidin-1-yl)pyrazolo[1,5-a]pyrimidin-3-yl)-4H-1,2,4-triazol-3-yl)ethan-1-ol]	20%	22.8%	2.78 nM
CC(C)(O)c1nnc(-c2cnn3ccc(N4CCC[C@@H]4c4cc(F)ccc4F)nc23)[nH]1 [Compound 7, (R)-2-(5-(5-(2-(2,5-difluorophenyl)pyrrolidin-1-yl)pyrazolo[1,5-a]pyrimidin-3-yl)-4H-1,2,4-triazol-3-yl)propan-2-ol]	6.97%	5.7%	5.68 nM
C[C@H](N)c1nnc(-c2cnn3ccc(N4CCC[C@@H]4c4cc(F)ccc4F)nc23)[nH]1 [Compound 11, (S)-1-(5-(5-((R)-2-(2,5-difluorophenyl)pyrrolidin-1-yl)pyrazolo[1,5-a]pyrimidin-3-yl)-4H-1,2,4-triazol-3-yl)ethan-1-amine]	–	–	5.79 nM
OC(c1nnc(-c2cnn3ccc(N4CCC[C@@H]4c4cc(F)ccc4F)nc23)[nH]1)C(F)(F)F (stereo partly drawn) [Compound 47, 1-(5-(5-((R)-2-(2,5-difluorophenyl)pyrrolidin-1-yl)pyrazolo[1,5-a]pyrimidin-3-yl)-4H-1,2,4-triazol-3-yl)-2,2,2-trifluoroethan-1-ol]	22.4%	29.5%	–
